# Assay results as given in patent US8835446B2, “Quinazoline derivatives and pharmaceutical compositions thereof” (Nippon Shinyaku Co., Ltd., priority 2005, dated 2014).
# Where two headings read alike, the source gives them in different places.
# Columns and labels:
# [1] = tested on: Rabbits; conditions: rabbit, in vivo
# Description: Then, erythema and edema formation at the application site was observed. […] The mean value of the sum of erythema and edema scores was used as a simple primary skin irritation index. […]
# [2] = tested on: Mice; assay: Effect on scratching behavior induced by serotonin application in mice; format: in vivo, mouse; conditions: counted for 15 minutes
# Description: To the cervical and dorsal area of male ICR mice (n=3 to 6) at the age of 4 to 6 weeks, 100 μl of a solution obtained by dissolving serotonin hydrochloride in ethanol at 0.1% (hereinafter referred to as serotonin) was applied, and the number of scratching behavior at the application site with the hind legs occurring immediately after the application was counted for 15 minutes after administration with a counter. Administration of a test compound was carried out by skin application, intravenous administration or oral administration. In the case of skin application, the test compound that was dissolved in ethanol was applied in an amount of 100 μl concurrently with serotonin. In the case of intravenous administration, the test compound that was dissolved in physiological saline was administered at a dose of 10 ml/kg at 5 minutes prior to the serotonin application. In the case of oral administration, the test compound that was dissolved in distilled water was administered at a dose of 10 ml/kg at 20 minutes prior to the serotonin application. The control group of each administration route was given the respective solvent, and the values of scratching behavior were compared between the control group and the test compound group.
# The results obtained by skin application of the test compound are shown in Table 3; the results obtained by intravenous administration of the test compound are shown in Table 4; and the results obtained by oral administration of the test compound are shown in Table 5.
# [3] = tested on: Mice; assay: Acute toxicity test in mice; format: in vivo, mouse; conditions: intravenous, observed for 2 hours
# Description: Male ICR mice at the age of 4 to 6 weeks were used.
# [4] = skin application, concentration 0.1% in ethanol, concurrently with serotonin
structure (smiles),measurement,setting,value
"COCCNC(=O)c1nc(N[C@H]2CCCC[C@H]2NC(=N)COC)c2cc(C)ccc2n1.Cl.Cl [Example 91, 4-({(1S,2R)-2-[(2-methoxyethanimidoyl)amino]cyclohexyl}amino)-N-(2-methoxyethyl)-6-methylquinazolin-2-carboxamide dihydrochloride]",Simple primary skin irritation index,"[1]; female, Kbs: JW, 24 h",0.5
same,Average number of scratching behavior,[2]; [4],70.5
"CC(=N)N[C@@H]1CCCC[C@@H]1Nc1nc(C(=O)NC(C)C)nc2ccc(C)cc12.Cl.Cl [Example 101, 4-{[(1S,2R)-2-(ethanimidoylamino)cyclohexyl]amino}-N-isopropyl-6-methylquinazolin-2-carboxamide dihydrochloride]",Simple primary skin irritation index,"[1]; female, Kbs: JW, 24 h",2.6
same,Average number of scratching behavior,[2]; [4],56.8
same,Change in behavior,[3]; 10 mg/kg,No obvious change
"COCCCNC(=O)c1nc(N[C@H]2CCCC[C@H]2NC(=N)CCO)c2cc(C)ccc2n1.Cl.Cl [Example 59, 4-({(1S,2R)-2-[(3-hydroxypropanimidoyl)amino]cyclohexyl}amino)-N-(3-methoxypropyl)-6-methylquinazolin-2-carboxamide dihydrochloride]",Simple primary skin irritation index,"[1]; female, Kbs: JW, 24 h",0.2
same,Average number of scratching behavior,[2]; [4],57.8
"CCOCCNC(=O)c1nc(N[C@H]2CCCC[C@H]2NC(=N)COC)c2cc(C)ccc2n1.Cl.Cl [Example 95, N-(2-ethoxyethyl)-4-({(1S,2R)-2-[(2-methoxyethanimidoyl)amino]cyclohexyl}amino)-6-methylquinazolin-2-carboxamide dihydrochloride]",Simple primary skin irritation index,"[1]; female, Kbs: JW, 24 h",0.7
"COCCCNC(=O)c1nc(N[C@H]2CCCC[C@H]2NC(=N)COC)c2cc(C)ccc2n1.Cl.Cl [Example 93, 4-({(1S,2R)-2-[(2-methoxyethanimidoyl)amino]cyclohexyl}amino)-N-(3-methoxypropyl)-6-methylquinazolin-2-carboxamide dihydrochloride]",Simple primary skin irritation index,"[1]; female, Kbs: JW, 24 h",0.2
"Cc1ccc2nc(C(=O)NCC(C)C)nc(N[C@H]3CCCC[C@H]3NC(=N)C(C)(C)O)c2c1.Cl.Cl [Example 60, 4-({(1S,2R)-2-[(2-hydroxy-2-methylpropanimidoyl)amino]cyclohexyl}amino)-N-isobutyl-6-methylquinazolin-2-carboxamide dihydrochloride]",Simple primary skin irritation index,"[1]; female, Kbs: JW, 24 h",1.0
same,Average number of scratching behavior,"[2]; intravenous administration, dose 3 mg/kg, 5 minutes prior to serotonin",64.0
same,Change in behavior,[3]; 5 mg/kg,No obvious change
"COCCCNC(=O)c1nc(N[C@H]2CCCC[C@H]2NC(C)=N)c2cc(C)ccc2n1.Cl.Cl [Example 92, 4-{[(1S,2R)-2-(ethanimidoylamino)cyclohexyl]amino}-N-(3-methoxypropyl)-6-methylquinazolin-2-carboxamide dihydrochloride]",Simple primary skin irritation index,"[1]; female, Kbs: JW, 24 h",0.0
same,Average number of scratching behavior,"[2]; oral administration, dose 30 mg/kg, 20 minutes prior to serotonin",141.0
same,Average number of scratching behavior,[2]; [4],76.3
same,Change in behavior,[3]; 10 mg/kg,No obvious change
"Cc1ccc2nc(C(=O)NCC(C)(C)C)nc(N[C@H]3CCCC[C@H]3NC(=N)N)c2c1.Cl.Cl [Comparative control B, 4-[((1S,2R)-2-{[amino(imino)methyl]amino}cyclohexyl)amino]-6-methyl-N-neopentyl quinazoline-2-carboxamide dihydrochloride, reference compound]",Simple primary skin irritation index,[1],2.4
"CCOCCNC(=O)c1nc(N[C@H]2CCCC[C@H]2NC(C)=N)c2cc(C)ccc2n1.Cl.Cl [Example 94, 4-{[(1S,2R)-2-(ethanimidoylamino)cyclohexyl]amino}-N-(2-ethoxyethyl)-6-methylquinazolin-2-carboxamide dihydrochloride]",Simple primary skin irritation index,"[1]; female, Kbs: JW, 24 h",1.0
"Cc1ccc2nc(C(=O)NC(C)C)nc(N[C@H]3CCCC[C@H]3NC(=N)CCO)c2c1.Cl.Cl [Example 58, 4-({(1S,2R)-2-[(3-hydroxypropanimidoyl)amino]cyclohexyl}amino)-N-isopropyl-6-methylquinazolin-2-carboxamide dihydrochloride]",Simple primary skin irritation index,"[1]; female, Kbs: JW, 24 h",0.4
same,Average number of scratching behavior,[2]; [4],55.5
same,Change in behavior,[3]; 10 mg/kg,No obvious change
"COC(C)(C)C(=N)N[C@@H]1CCCC[C@@H]1Nc1nc(C(=O)NCC(C)(C)C)nc2ccc(C)cc12.Cl.Cl [Example 19, N-(2,2-dimethylpropyl)-4-({(1S,2R)-2-[(2-methoxy-2-methylpropanimidoyl)amino]cyclohexyl}amino)-6-methylquinazolin-2-carboxamide dihydrochloride]",Simple primary skin irritation index,"[1]; female, Kbs: JW, 24 h",0.4
same,Average number of scratching behavior,[2]; [4],69.2
"Cc1ccc2nc(C(=O)NCC(C)C)nc(N[C@H]3CCCC[C@H]3NC(N)=NO)c2c1.Cl.Cl [Example 212, 4-[((1S,2R)-2-{[amino(hydroxyimino)methyl]amino}cyclohexyl)amino]-N-isobutyl-6-methylquinazolin-2-carboxamide dihydrochloride]",Simple primary skin irritation index,"[1]; female, Kbs: JW, 24 h",0.8
same,Average number of scratching behavior,[2]; [4],49.8
same,Change in behavior,[3]; 10 mg/kg,No obvious change
"CCOCCNC(=O)c1nc(N[C@H]2CCCC[C@H]2NC(=N)CCO)c2cc(C)ccc2n1.Cl.Cl [Example 61, N-(2-ethoxyethyl)-4-({(1S,2R)-2-[(3-hydroxypropanimidoyl)amino]cyclohexyl}amino)-6-methylquinazolin-2-carboxamide dihydrochloride]",Simple primary skin irritation index,"[1]; female, Kbs: JW, 24 h",0.4
"COCCNC(=O)c1nc(N[C@H]2CCCC[C@H]2NC(C)=N)c2cc(C)ccc2n1.Cl.Cl [Example 1, 4-{[(1S,2R)-2-(ethanimidoylamino)cyclohexyl]amino}-N-(2-methoxyethyl)-6-methylquinazolin-2-carboxamide dihydrochloride]",Simple primary skin irritation index,"[1]; female, Kbs: JW, 24 h",0.3
same,Average number of scratching behavior,[2]; [4],57.8
same,Change in behavior,[3]; 10 mg/kg,No obvious change
"CON(C)C(=N)N[C@@H]1CCCC[C@@H]1Nc1nc(C(=O)NCC(C)C)nc2ccc(C)cc12.Cl.Cl [Example 236, 4-{[(1S,2R)-2-({imino[methoxy(methyl)amino]methyl}amino)cyclohexyl]amino}-N-isobutyl-6-methylquinazolin-2-carboxamide dihydrochloride]",Simple primary skin irritation index,"[1]; female, Kbs: JW, 24 h",1.6
"CON=C(N)N[C@@H]1CCCC[C@@H]1Nc1nc(C(=O)NCC(C)C)nc2ccc(C)cc12.Cl.Cl [Example 211, 4-[((1S,2R)-2-{[amino(methoxyimino)methyl]amino}cyclohexyl)amino]-N-isobutyl-6-methylquinazolin-2-carboxamide dihydrochloride]",Simple primary skin irritation index,"[1]; female, Kbs: JW, 24 h",1.5
same,Average number of scratching behavior,[2]; [4],73.0
same,Change in behavior,[3]; 10 mg/kg,No obvious change
"CCOCCNC(=O)c1nc(N[C@H]2CCCC[C@H]2NC(=N)N)c2cc(C)ccc2n1.Cl.Cl [Comparative control C, 4-[((1S,2R)-2-{[amino(imino)methyl]amino}cyclohexyl)amino]-N-(2-ethoxyethyl)-6-methylquinazoline-2-carboxamide dihydrochloride, reference compound]",Simple primary skin irritation index,"[1]; female, Kbs: JW, 24 h",2.3
"COCCCNC(=O)c1nc(N[C@H]2CCCC[C@H]2NC(=N)N)c2cc(C)ccc2n1.Cl.Cl [Comparative control D, 4-[((1S,2R)-2-{[amino(imino)methyl]amino}cyclohexyl)amino]-N-(3-methoxypropyl)-6-methylquinazoline-2-carboxamide dihydrochloride, reference compound]",Simple primary skin irritation index,"[1]; female, Kbs: JW, 24 h",2.0
"COCCNC(=O)c1nc(N[C@H]2CCCC[C@H]2NC(N)=NOC)c2cc(C)ccc2n1.COCCNC(=O)c1nc(N[C@H]2CCCC[C@H]2NC(N)=NOC)c2cc(C)ccc2n1.O=S(=O)(O)O [Example 248, 4-[((1S,2R)-2-{[amino(methoxyimino)methyl]amino}cyclohexyl)amino]-N-(2-methoxyethyl)-6-methylquinazolin-2-carboxamide 1/2 sulfate]",Simple primary skin irritation index,[1],0.8
"Cc1ccc2nc(C(=O)NC(C)C)nc(N[C@H]3CCCC[C@H]3NC(=N)N)c2c1.Cl.Cl [Comparative control E, 4-[((1S,2R)-2-{[amino(imino)methyl]amino}cyclohexyl)amino]-N-isopropyl-6-methylquinazoline-2-carboxamide dihydrochloride, reference compound]",Simple primary skin irritation index,"[1]; female, Kbs: JW, 24 h",3.6
"COCCNC(=O)c1nc(N[C@H]2CCCC[C@H]2NC(=N)N)c2cc(C)ccc2n1.Cl.Cl [Comparative control F, 4-[((1S,2R)-2-{[amino(imino)methyl]amino}cyclohexyl)amino]-N-(2-methoxyethyl)-6-methylquinazoline-2-carboxamide dihydrochloride, reference compound]",Simple primary skin irritation index,"[1]; female, Kbs: JW, 24 h",2.2
"COCCCNC(=O)c1nc(N[C@H]2CCCC[C@H]2NC(=N)CCOC)c2cc(C)ccc2n1.Cl.Cl [Example 35, 4-({(1S,2R)-2-[(3-methoxypropanimidoyl)amino]cyclohexyl}amino)-N-(3-methoxypropyl)-6-methylquinazolin-2-carboxamide dihydrochloride]",Simple primary skin irritation index,"[1]; female, Kbs: JW, 24 h",1.5
same,Average number of scratching behavior,[2]; [4],69.0
